Results on 2 compounds are retold here after patent US4843062A, “N-acyl-N-napthoylglycines as aldose reductase inhibitors” (American Home Products Corporation, priority 1987, dated 1989).

Like-named read-outs stand apart in the source and are kept apart here.

Test [1] has as its target T1, aldose reductase (Bos taurus, UniProt P16116).
T1 construct: preparation of the enzyme from bovine lens; from tissue; host or cells: bovine lens
The test is described as follows: Aldose reductase inhibition in vitro (enzyme preparation from bovine lens, modified Hayman and Kinoshita procedure). Format: biochemical. To be noted: for inhibition at 10 µM: 10^-5 M; for inhibition at 10 µM / inhibition at 1 µM: read-out: % Inhibition IN VITRO; for inhibition at 0.1 µM: 10^-7 M. The method, then: (§1) Only two minor reagent changes were made: (a) The rinsing mixture was an aqueous 5% (w/v) trichloroacetic acid solution and (b) the stock solution was prepared by dissolving 25 mg of dulcitol in 100 mL of an aqueous trichloroacetic acid solution. [N.B.: For each experiment the average value found in the tissue from rats fed the glucose diet was subtracted from the individual values found in the corresponding tissue in galactose-fed rats to obtain the amount of polyol accumulated.] […] In the present case the procedure of Hayman and Kinoshita was modified in that the final chromatography step was omitted in the preparation of the enzyme from bovine lens.

The subject of test [2] is sciatic nerve (galactitol accumulation). The test is described as follows: Galactitol (dulcitol) accumulation in sciatic nerve of galactosemic rats. Format: in vivo, rat (male, Sprague-Dawley). To be noted: four days.
Excerpt: Such experiments are exemplified hereinbelow after the listing of the following general comments pertaining to these experiments.
(a) Four or more groups of six male rats, 50-70 g, Sprague-Dawley strain, were used. The first group, the control group, was fed a mixture of laboratory chow (rodent Laboratory Chow, Purina) and glucose at 20% (w/w %) concentration. […] The test compound was either admixed to the diet or administered by gavage. In experiments involving compound administration in the diet, the average dose administered was calculated from the actual food intake of the animals in each group. The concentration of galactose in the diet of the treated groups was the same as that for the untreated galactosemic group.
(§2) (b) After four days, the animals were killed by decapitation. The eyeballs were removed and punctured with a razor blade; the freed lenses were rolled gently on filter paper and weighed. The sciatic nerves were dissected as completely as possible and weighed. Both tissues when frozen can be kept up to two weeks before being analyzed for galactitol.
as §1, with “(c) The polyol determination was performed by a modification of the procedure of M. Kraml and L. Cosyns, Clin. Biochem., 2,373 (1969). Only” for “Only”
(§3) The figures under L, N, and D represent the percentage decrease of galactitol accumulation in the tissues of the lens, sciatic nerve, and diaphragm, respectively, for treated rats as compared to untreated rats.

Test [3] relates to rats fed galactose. The test is described as follows: Galactosemic rat experiments. The test is classed as in vivo, rat (male, Sprague-Dawley). From the text: (§4) The aldose reductase inhibiting property of the compounds of this invention and the utilization of the compounds in preventing, diminishing and alleviating diabetic complications are demonstrable in experiments using galactosemic rats, see Dvornik et al, Science, 182, 1146 (1973). Such experiments are exemplified hereinbelow after the listing of the following general comments pertaining to these experiments.
(§5) (a) Four or more groups of six male rats, 50-70 g, Sprague-Dawley strain, were used. The first group, the control group, was fed a mixture of laboratory chow (rodent Laboratory Chow, Purina) and glucose at 20% (w/w %) concentration. The untreated galactosemic group and the drug-treated groups were fed a similar diet in which galactose is substituted for glucose. The test compound was either admixed to the diet or administered by gavage. In experiments involving compound administration in the diet, the average dose administered was calculated from the actual food intake of the animals in each group. The concentration of galactose in the diet of the treated groups was the same as that for the untreated galactosemic group.
(b) After four days, the animals were killed by decapitation. […] Both tissues when frozen can be kept up to two weeks before being analyzed for galactitol. […]

In test [4] the test system is lens (galactitol accumulation). Description: Galactitol (dulcitol) accumulation in lens of galactosemic rats. Format: in vivo, rat (male, Sprague-Dawley). To be noted: 48 mg/kg, four days.
Excerpt: as §4, §5, §2
(c) The polyol determination was performed by a modification of the procedure of M. Kraml and L. Cosyns, Clin. Biochem., 2,373 (1969). Only two minor reagent changes were made: (a) The rinsing mixture was an aqueous 5% (w/v) trichloroacetic acid solution and (b) the stock solution was prepared by dissolving 25 mg of dulcitol in 100 mL of an aqueous trichloroacetic acid solution. [N.B.: For each experiment the average value found in the tissue from rats fed the glucose diet was subtracted from the individual values found in the corresponding tissue in galactose-fed rats to obtain the amount of polyol accumulated.] The aldose reductase inhibiting effects of the compounds of formula (I) were also tested by employing an in vitro testing procedure similar to that described by S. Hayman and J. H. Kinoshita, J. Biol. Chem., 240,877 (1965). In the present case the procedure of Hayman and Kinoshita was modified in that the final chromatography step was omitted in the preparation of the enzyme from bovine lens.
as §3

Consider `CCOC(=O)N(CC(=O)O)C(=O)c1cccc2c(C(F)(F)F)c(OC)ccc12` [Example 1, N-[[6-Methoxy-5-(trifluoromethyl)-1-naphthalenyl]carbonyl]-N-[(ethoxy)carbonyl]glycine], for which, in test [1], the inhibition (commonly the change of the read-out against control, counted positive when it falls) at 10 µM came out at 97%; at 0.1 µM the inhibition was 47%; the inhibition at 1 µM came to 94%. Moreover, in test [2] (57 mg/kg), the “% Lowering dulcitol accumulation IN VIVO (%)N” value was determined as 56%. Moreover, in test [2] (97 mg/kg), the “% Lowering dulcitol accumulation IN VIVO (%)N” value was found to be 90%. For the same compound, the “results compared with tolrestat” value in test [3] (57 mg/kg/day versus tolrestat at 9 mg/kg/day) is recorded as “comparable results”.

In the case of `COC(=O)N(CC(=O)O)C(=O)c1cccc2c(C(F)(F)F)c(OC)ccc12` [Example 2, N-[[6-Methoxy-5-(trifluoromethyl)-1-naphthalenyl]carbonyl]-N-[(methoxy)carbonyl]glycine], in test [1], the inhibition at 10 µM came out at 98% and at 0.1 µM the inhibition was 82%. The inhibition at 1 µM in test [1] (10^-6 M) is 97%. Besides, the “% Lowering dulcitol accumulation IN VIVO (%)L” value in test [4] is “N.S”. The “% Lowering dulcitol accumulation IN VIVO (%)N” value in test [2] (48 mg/kg) stood at 70%. In addition, in test [3] (48 mg/kg/day versus tolrestat at 9 mg/kg/day), the “results compared with tolrestat” value is on record as “comparable results”.
